Reference: patent US20030155090A1, “Process for controlling microbial growth” (priority 2000, published 2003)

Assays:
Strain 1 = assay: Survival of isolated bacteria in nutrient broth under a CO2 atmosphere at 45° C., colony count on agar plates; type: cell-based
Procedure: (§1) A set of representative bacterial strains was isolated from a white water sample from a Swedish recycled pulp mill. The sample originally yielded 70 bacterial strains which each represented a group of different bacteria, which grew under similar conditions. The strains were tested on different media and their oxygen demands were studied. The results gave an indication of eight main groups. […] Those three groups were put together to one large group.
(§2) From this dominating group, one strain was chosen for the carbon dioxide experiments. Two other strains from another recycled pulp mill were included in the experiments.
(§3) Glass bottles were tempered to 45° C. and CO2 was added to create a carbon dioxide atmosphere. Bacteria from the three isolated strains were added to separate bottles together with a nutrient broth. A first sample representing “0 min” was taken out immediately from each bottle and then at a number of occasions during the next three hours. Each sample was diluted in dilution series with dilution 1/10 in six steps (10^1-10^6) and grown on agar plates. The plates were incubated at 45° C. for two days, after which the number of colonies were counted and related to the dilution.

Strain 2 = assay: as above; type: cell-based
Procedure: as §1, §2, §3

Strain 3 = assay: as above; type: cell-based
Procedure: as §1, §2, §3

three isolated strains = assay: Survival under a CO2 atmosphere, average of the three isolated strains; type: cell-based, bacteria; settings: for percentage of surviving cells, Average: 45° C.
Procedure: as §1, §2, §3

[1] = tested on: microbial activity during storage; assay: Full-scale mill trial, carbon dioxide introduced just prior to the pulp storage tower; settings: 1-2 kg CO2/ton pulp just prior to the storage tower, chemical pulp
Procedure: A mill produced wood-free paper from chemical pulp. At the time of the trials, the mill stored pulp for long periods of time in storage towers prior to the stock preparation. The storage caused problems with bad smell and black spots in the pulp, which was believed to be caused by high microbial activity during storage.
A full-scale trial of treatment with a gaseous inhibitor was performed. Thus, carbon dioxide gas was introduced in an amount of 1-2 kg CO2/ton pulp just prior to the storage tower.

O=C=O [CO2, carbon dioxide]
percentage of surviving cells (Strain 1; Strain 1, 0 min): 100% | percentage of surviving cells (Strain 1; Strain 1, 10 min): 75% | percentage of surviving cells (Strain 1; Strain 1, 20 min): 34% | percentage of surviving cells (Strain 1; Strain 1, 30 min): 73% | percentage of surviving cells (Strain 1; Strain 1, 40 min): 50% | percentage of surviving cells (Strain 1; Strain 1, 50 min): 61% | percentage of surviving cells (Strain 1; Strain 1, 60 min): 59% | percentage of surviving cells (Strain 1; Strain 1, 80 min): 39% | percentage of surviving cells (Strain 1; Strain 1, 100 min): 16% | percentage of surviving cells (Strain 1; Strain 1, 120 min): 18% | percentage of surviving cells (Strain 1; Strain 1, 140 min): 5% | percentage of surviving cells (Strain 1; Strain 1, 160 min): 4% | percentage of surviving cells (Strain 1; Strain 1, 180 min): 9% | percentage of surviving cells (Strain 2; Strain 2, 0 min): 100% | percentage of surviving cells (Strain 2; Strain 2, 10 min): 141% | percentage of surviving cells (Strain 2; Strain 2, 20 min): 76% | percentage of surviving cells (Strain 2; Strain 2, 30 min): 137% | percentage of surviving cells (Strain 2; Strain 2, 40 min): 48% | percentage of surviving cells (Strain 2; Strain 2, 50 min): 94% | percentage of surviving cells (Strain 2; Strain 2, 60 min): 46% | percentage of surviving cells (Strain 2; Strain 2, 80 min): 88% | percentage of surviving cells (Strain 2; Strain 2, 100 min): 55% | percentage of surviving cells (Strain 2; Strain 2, 120 min): 43% | percentage of surviving cells (Strain 2; Strain 2, 140 min): 35% | percentage of surviving cells (Strain 2; Strain 2, 160 min): 41% | percentage of surviving cells (Strain 2; Strain 2, 180 min): 24% | percentage of surviving cells (Strain 3; Strain 3, 0 min): 100% | percentage of surviving cells (Strain 3; Strain 3, 10 min): 92% | percentage of surviving cells (Strain 3; Strain 3, 20 min): 77% | percentage of surviving cells (Strain 3; Strain 3, 30 min): 58% | percentage of surviving cells (Strain 3; Strain 3, 40 min): 47% | percentage of surviving cells (Strain 3; Strain 3, 50 min): 36% | percentage of surviving cells (Strain 3; Strain 3, 60 min): 67% | percentage of surviving cells (Strain 3; Strain 3, 80 min): 44% | percentage of surviving cells (Strain 3; Strain 3, 100 min): 42% | percentage of surviving cells (Strain 3; Strain 3, 120 min): 16% | percentage of surviving cells (Strain 3; Strain 3, 140 min): 7% | percentage of surviving cells (Strain 3; Strain 3, 160 min): 4% | percentage of surviving cells (Strain 3; Strain 3, 180 min): 2% | percentage of surviving cells, Average (three isolated strains; Average of Strains 1-3, 0 min): 100% | percentage of surviving cells, Average (three isolated strains; Average of Strains 1-3, 10 min): 103% | percentage of surviving cells, Average (three isolated strains; Average of Strains 1-3, 20 min): 62% | percentage of surviving cells, Average (three isolated strains; Average of Strains 1-3, 30 min): 89% | percentage of surviving cells, Average (three isolated strains; Average of Strains 1-3, 40 min): 48% | percentage of surviving cells, Average (three isolated strains; Average of Strains 1-3, 50 min): 64% | percentage of surviving cells, Average (three isolated strains; Average of Strains 1-3, 60 min): 57% | percentage of surviving cells, Average (three isolated strains; Average of Strains 1-3, 80 min): 57% | percentage of surviving cells, Average (three isolated strains; Average of Strains 1-3, 100 min): 38% | percentage of surviving cells, Average (three isolated strains; Average of Strains 1-3, 120 min): 47% | percentage of surviving cells, Average (three isolated strains; Average of Strains 1-3, 140 min): 16% | percentage of surviving cells, Average (three isolated strains; Average of Strains 1-3, 160 min): 16% | percentage of surviving cells, Average (three isolated strains; Average of Strains 1-3, 180 min): 12% | bacteria survived (three isolated strains; after 2 hours): about 50% | bacteria survived (three isolated strains; after 3 hours): more than 10% | bacteria survived (three isolated strains; after approximately 1 hour): about 60% | number of black spots in the pulp [1]: reduced | pulp's smell [1]: reduced
